According to patent publication US20250312469A1 (CANGET BIOTEKPHARMA, priority 2024, published 2025):

Columns and labels:
[1] = target: DDX5 (Homo sapiens, UniProt P17844); assay: Isothermal titration calorimetry (ITC), Flag-DDX5; type: binding; conditions: from ITC KD
[2] = target: T1, UbE2T (Homo sapiens, UniProt Q9NPD8); assay: ITC, Flag-UbE2T; type: binding; parameters: host or cells: HEK293T
T1 sequence (Q9NPD8 1-197): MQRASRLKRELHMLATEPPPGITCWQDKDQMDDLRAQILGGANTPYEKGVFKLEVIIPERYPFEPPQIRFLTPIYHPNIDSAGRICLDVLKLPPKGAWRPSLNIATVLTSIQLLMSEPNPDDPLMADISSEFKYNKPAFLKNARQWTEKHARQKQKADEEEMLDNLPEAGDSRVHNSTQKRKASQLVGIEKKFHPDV
From the text: Purification of Flag-tagged DDX5 (Flag-DDX5), USP2a (Flag-USP2), UbE2T (Flag-(bE2T) and topoisomerase 1 (Top1) (Flag-Top1) proteins: Flag-DDX5, Flag-USP2, Flag-UbE2T and Flag-Topl proteins were purified from the protein expression vector-transfected HEK293T cells by using the FLAG® M Purification Kit for mammalian expression systems (CELLMM2-IKT, Sigma). Briefly, sub-confluent populations of HEK293T cells were transfected with expression vectors for Flag-DDX5, Flag-USP2, Flag-UbE2T and Flag-Top1 (OriGene) using Lipofectamine 2000 (Invitrogen) as per the manufacturer's instructions. After 72h of transfection, cells were lysed in Cell Lytic M lysis reagent (Sigma Cat #C2978) containing a protease inhibitor cocktail. […]
Replacement of the Tris-HCl buffer with the PBS buffer for purified proteins for drug-protein binding analyses using isothermal titration calorimetry (ITC): After the purified proteins were eluted from the agarose resin with 3×flag peptide, the same purified protein samples from different batches were combined. […] The PBS-resuspended protein samples were recovered from the reservoir and the protein concentrations were determined using the nano-drop reader (Bio-Rad) and BCA Protein Assay (Thermo/Pierce) for double-making sure the concentration. […]

[3] = test system: DU145 xenografts; assay: DU145 xenograft tumor model; conditions: 8 mg/kg oral, weekly×4

DDX5, sequence (P17844 whole entry): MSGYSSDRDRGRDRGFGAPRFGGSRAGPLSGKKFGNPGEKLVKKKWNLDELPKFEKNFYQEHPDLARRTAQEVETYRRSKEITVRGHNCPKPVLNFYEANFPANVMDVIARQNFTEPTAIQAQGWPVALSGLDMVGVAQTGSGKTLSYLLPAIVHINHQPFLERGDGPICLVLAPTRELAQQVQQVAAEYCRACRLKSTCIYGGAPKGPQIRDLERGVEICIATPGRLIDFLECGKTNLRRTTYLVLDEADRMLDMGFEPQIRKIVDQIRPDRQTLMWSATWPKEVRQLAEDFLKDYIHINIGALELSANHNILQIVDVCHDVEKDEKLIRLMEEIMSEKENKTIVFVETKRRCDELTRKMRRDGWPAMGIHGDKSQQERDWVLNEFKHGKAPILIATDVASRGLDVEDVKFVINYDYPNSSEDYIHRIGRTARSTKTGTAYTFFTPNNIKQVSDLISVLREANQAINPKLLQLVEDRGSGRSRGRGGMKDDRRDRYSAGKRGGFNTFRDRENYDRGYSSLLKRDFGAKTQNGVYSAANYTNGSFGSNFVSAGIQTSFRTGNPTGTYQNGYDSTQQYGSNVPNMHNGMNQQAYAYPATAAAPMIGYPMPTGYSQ

CCC1(O)C(=O)OCc2c1cc1n(c2=O)Cc2cc3cc4c(cc3nc2-1)OCO4 (stereo not drawn) [FL118]
FL118 binding to DDX5 versus Top1 (times stronger) [1]: about 10 | Kd [2]: 160 nM | antitumor efficacy [3]: well inhibited
